What was measured:
P31/Fuj AML cells = experiment: Sequential treatment of P31/Fuj cells (ATRA or LSD1 inhibitor 5 days, then MEKi 3 days; also co-treatment and reverse treatment): cell viability, cell number, apoptosis, CDI; format: cell-based; details: for drug interaction with MEKi in sequential treatment (CDI): alternative LSD1 inhibitor 5 days then trametinib 3 days, P31/Fuj cells (FIGS. 10 D, E)
Experimental: The Bliss independence model was used to derive coefficients of drug interaction (CDI) values, where CDI <1 indicates significant priming by the […] (synergistic effect).
For the proliferation/viability assays, cells were seeded in T75 flasks (0.5×10^6 cells/mL of RPMI/FBS medium) and exposed for 5 days to either vehicle or epigenetic modifier. Unless otherwise specified, the final concentration for GSK2879552 (LSD1i), […] (EZH2i), pinometostat (DOT1Li) and ATRA was 1 μM while for decitabine (DNMTAi) and vorinostat (HDACi) was 100 nM; all epigenetic inhibitors were diluted in DMSO, while ATRA was diluted in Et-OH. Vehicle concentration was kept at 0.1%. […] The final concentration of DMSO was kept at 0.1%. Finally, cells were transferred to 96-well plates (100 μL per well in 3 technical replicates per condition) and cell viability and proliferation were assessed using Guava and ApoTox-Glo Triplex analyses, as indicated below.
For Guava analysis, cells were stained with Guava ViaCount reagent (Luminex #4000-0040) in 96-well plates, by mixing 150 μL of cell suspension with 75 μL of reagent, and left to incubate for a minimum of 10 minutes in the dark, after which they were processed through a Guava easyCyte flow cytometer (Luminex #0500-5005). Flow cytometry data were analysed using CytoSoft (v2.5.7). Viability and cell number values were expressed relative to vehicle control.
For ApoTox-Glo analysis, cell suspensions were transferred to opaque 96-well plates (100 μL per well) and viability and apoptosis measured using ApoTox-Glo Triplex Assay (Promega #G6320). 20 μL of Viability/Cytotoxicity reagent (containing GF-AFC and bis-AAF-R110 substrates) were added to each well, then incubated at 37° C. for 1 hour. Live cell and cytotoxicity outputs were measured on FLUOstar Omega microplate reader (BMG Labtech). To obtain the live cell output, fluorescence was measured at 355EX/520EM (wavelengths in nm); for the cytotoxicity output, fluorescence was measured at 485EX/520EM. Following this, 100 μL of Caspase-Glo 3/7 reagent were added to each well and incubated at 25° C. for 1 hour. Luminescence was then measured on FLUOstar Omega microplate reader (BMG Labtech). The fluorescence and luminescence signals thus obtained were corrected to the respective background controls (culture medium with no cells). Relative cell number values were obtained by normalising live cell outputs to vehicle control. Apoptosis values were obtained by dividing luminescence outputs to the respective live cell outputs, then normalising to vehicle control.
The extent of drug interaction was calculated in Microsoft Excel 2016 using the CDI formula AB/(A*B), where AB is the normalized reduction in cell viability of the sequential treatment, and A and B are the effects of single treatments. Statistical significance of CDI values for each AML sample was determined using a one sample t-test (base R package) with the null hypothesis being that the mean Log2(CDI) equals 0.

P31/Fuj cells = experiment: Phosphoproteomics (LC-MS/MS) and kinase network analysis of treated P31/Fuj cells
Experimental: To study ATRA effect over the phosphoproteome, P31/Fuj cells (10×10^6 cells at 0.5×10^6 cell/mL) were seeded in T75 flask and treated with either Et-OH, 1 μM ATRA or 10 μM ATRA for 5 days. […] For both experiments, cells were collected by centrifugation (1500 rpm for 5 min at 5° C.), then cell pellets were washed twice with ice cold PBS supplemented with phosphatase inhibitors (1 mM Na3VO4, 1 mM NaF) and stored at −80° C. Pellets were processed for phosphoproteomics analysis as indicated below.
In brief, cell pellets were lysed in 300 μL of urea buffer (8 M urea in 20 mM HEPES, pH 8.0, supplemented with 1 mM Na3VO4, 1 mM NaF, 1 mM Na4P2O7 and 1 mM P-glycerophosphate). Lysates were further homogenized by sonication (30 cycles of 30 s on 30 s off; Diagenode Bioruptor® Plus) and insoluble material was removed by centrifugation. Protein was quantified using BCA (Thermo Fisher Scientific). Then, 500 μg of protein were subjected to cysteine alkylation using sequential incubation with 10 mM dithiothreitol (DDT) and 16.6 mM iodoacetamide (IAM) for 1 h and 30 min, respectively, at 25° C. with agitation. Trypsin beads (50% slurry of TLCK-trypsin; Thermo Fisher Scientific; Cat. #20230) were equilibrated with 3 washes with 20 mM HEPES (pH 8.0), the urea concentration in the protein suspensions was reduced to 2 M by the addition of 20 mM HEPES (pH 8.0), 100 μL of equilibrated trypsin beads were added and the samples were incubated overnight at 37° C. Trypsin beads were removed by centrifugation (2000×g at 5° C. for 5 min) and the resulting peptide solutions were desalted through Oasis HLB cartridges (Waters) following the manufacturer's indications. Briefly, cartridges were set in a vacuum manifold device and the pressure was adjusted to 5 mmHg. Then, cartridges were conditioned with 1 mL acetonitrile (ACN) and equilibrated with 2.5 mL of wash solution (0.1% trifluoroacetic acid (TFA), 2% ACN). Peptides were loaded in the cartridges and washed with 1 mL of wash solution. Finally, peptides were eluted with 500 μL of glycolic acid buffer 1 (1 M glycolic acid, 5% TFA, 50% ACN). Enrichment of phosphorylated peptides was performed with TiO2 Beads (GL Sciences). The eluents were normalized to 1 mL with glycolic acid buffer 2 (1 M glycolic acid, 5% TFA, 80% ACN) and incubated with 50 μl of TiO2 buffer (50% slurry in 1% TFA) for 5 min at room temperature. TiO2 beads were packed by centrifugation into empty spin columns (Glygen Corporation; Cat. TT2EMT) previously washed with ACN. TiO2 beads were sequentially washed by centrifugation (1500×g for 3 min) with 100 μL of glycolic acid buffer 2, ammonium acetate solution (100 mM ammonium acetate in 25% ACN) and twice with neutral solution (10% ACN). For phosphopeptide elution, spin tips were transferred to fresh tubes, 50 μL of elution solution (5% NH4OH, 7.5% ACN) were added and tips were centrifuged at 1500×g for 3 min. The elution step was repeated a total of 4 times. Finally, samples were snap frozen, dried in a SpeedVac and phosphopeptide pellets were stored at −80° C.

| Compound | drug interaction with MEKi in sequential treatment (CDI) (P31/Fuj AML cells) | sensitisation to MEKi (trametinib) treatment, cell viability (P31/Fuj AML cells; ATRA pre-treatment for five days, then trametinib, P31/Fuj cells (FIG. 2B)) | phosphorylation of the MAPK and PI3K pathway markers ERK1 pY204 and c-MYC pT58/pS62 (P31/Fuj cells; ATRA 1 or 10 μM, 5 days, P31/Fuj cells (FIG. 9B)) | phosphorylation of CEBPE and LTB4R (P31/Fuj cells; ATRA 1 or 10 μM, 5 days, dose-dependent manner, P31/Fuj cells (FIG. 9B)) | axes containing CDKL5 and stress kinases such as STK4 (P31/Fuj cells; ATRA 5 days, P31/Fuj cells) | phosphorylation of MAPK1 and PI3K signaling axes (P31/Fuj cells; ATRA 5 days, P31/Fuj cells) |
| --- | --- | --- | --- | --- | --- | --- |
| Cl.Cl.NC1CCC(N[C@@H]2C[C@H]2c2ccccc2)CC1 (relative stereo) [ORY-1001, rel-N1-[(1R,2S)-2-phenylcyclopropyl]-1,4-cyclohexanediamine, dihydrochloride] | synergistic interactions with MEKi | – | – | – | – | – |
| CC1=C(/C=C/C(C)=C/C=C/C(C)=C/C(=O)O)C(C)(C)CCC1 [ATRA, all-trans-retinoic acid] | – | sensitised myeloid P31/Fuj cells to MEKi treatment | decreased | increasing | increasing | decreased |
| COc1ccc(-c2c(-c3ccc(C#N)c(F)c3)nc(N3CCC(N)CC3)n(C)c2=O)cc1F [CC-90011] | synergistic interactions with MEKi | – | – | – | – | – |

Source: US20240418723A1, “SEQUENTIAL TREATMENTS AND BIOMARKERS TO REVERSE RESISTANCE TO KINASE INHIBITORS” (Queen Mary University of London, priority 2021, published 2024)
